# Square brackets hold non-standard residues; d marks the D form. Peptide text beside a SMILES is read from it. Nle = CCCC[C@H](N)C(=O)O; Orn = NCCC[C@H](N)C(=O)O; Nva = CCC[C@H](N)C(=O)O
# Tested on: secretion of ACTH stimulated by oCRF in cultured rat pituitary cells
# Experiment: Blocking of oCRF-stimulated ACTH and β-endorphin secretion by cultured rat pituitary cells
# Assay type: cell-based
# Conditions: result in words
# Procedure: The effectiveness of synthetic CRF antagonists to block the secretion of ACTH and β-endorphin by cultured rat pituitary cells is measured using the procedure as generally set forth in Vale et al., Endocrinology, 91, 562 (1972).
row,Compound,inhibition of the secretion of ACTH and β-END-LI
1,"CCCC[C@H](NC(=O)[C@H](Cc1ccc(O)cc1)NC(=O)[C@H](CCCCN)NC(=O)[C@H](CCCNC(=N)N)NC(=O)[C@H](CC(N)=O)NC(=O)[C@H](CC(C)C)NC(=O)CNC(=O)[C@H](C)NC(=O)[C@H](CCC(N)=O)NC(=O)[C@H](CCC(=O)O)NC(=O)[C@H](CCCNC(=N)N)NC(=O)[C@H](CCC(N)=O)NC(=O)[C@H](CC(N)=O)NC(=O)[C@H](CCC(=O)O)NC(=O)[C@H](CC(N)=O)NC(=O)[C@H](CCCNC(=N)N)NC(=O)[C@H](C)NC(=O)[C@H](CCSC)NC(=O)[C@H](CCC(=O)O)NC(=O)[C@@H](NC(=O)[C@H](CCSC)NC(=O)[C@H](CC(N)=O)NC(=O)[C@H](CCCNC(=N)N)NC(=O)[C@H](CC(C)C)NC(=O)[C@H](CC(C)C)NC(=O)[C@H](Cc1c[nH]cn1)NC(=O)[C@@H](N)Cc1ccccc1)[C@@H](C)CC)C(=O)N[C@@H](CC(=O)O)C(=O)N[C@@H](CCC(=O)O)C(=O)N[C@H](C(N)=O)C(C)C [VI, [Nle^38]-Carp Urotensin I(12-41)] (H-FHLLRNMIEMARNENQREQAGLNRKY[Nle]DEV-NH2)",inhibits the secretion of ACTH and β-END-LI
2,"CCCC[C@H](NC(=O)[C@H](CC(C)C)NC(=O)[C@H](CC(C)C)NC(=O)[C@H](CCCNC(=N)N)NC(=O)[C@H](CC(N)=O)NC(=O)[C@H](CC(C)C)NC(=O)[C@H](C)NC(=O)[C@H](C)NC(=O)[C@H](CCC(N)=O)NC(=O)[C@H](CCC(=O)O)NC(=O)[C@H](C)NC(=O)[C@H](C)NC(=O)[C@H](CCC(N)=O)NC(=O)[C@H](CCC(=O)O)NC(=O)[C@H](C)NC(=O)[C@H](CCCCN)NC(=O)[C@H](C)NC(=O)[C@H](CC(C)C)NC(=O)[C@H](CCC(=O)O)NC(=O)[C@H](CC(C)C)NC(=O)[C@H](CCCC)NC(=O)[C@H](CCC(=O)O)NC(=O)[C@H](CCCNC(=N)N)NC(=O)[C@H](CC(C)C)NC(=O)[C@H](CC(C)C)NC(=O)[C@H](Cc1c[nH]cn1)NC(=O)[C@@H](N)Cc1ccccc1)C(=O)N[C@@H](CCC(=O)O)C(=O)N[C@@H](CCC(=O)O)C(=O)N[C@@H](C)C(N)=O [XXII, [Nle^18,38, Leu^21, Ala^27]-AHC (12-41)] (H-FHLLRE[Nle]LELAKAEQAAEQAALNRLL[Nle]EEA-NH2)",inhibits the secretion of ACTH and β-END-LI
3,"[4ClD-Phe^12, Nle^18,21,38 ]-AHC(9-41) [XX]",inhibits the secretion of ACTH and β-END-LI
4,"CCCC[C@H](NC(=O)[C@H](CCCCN)NC(=O)[C@H](C)NC(=O)[C@H](CCSC)NC(=O)[C@H](CCC(=O)O)NC(=O)[C@H](C)NC(=O)[C@@H](NC(=O)[C@H](CCC(=O)O)NC(=O)[C@H](CCCNC(=N)N)NC(=O)[C@H](CC(C)C)NC(=O)[C@H](CC(C)C)NC(=O)[C@H](Cc1c[nH]cn1)NC(=O)[C@H](N)Cc1ccc(O)cc1)C(C)C)C(=O)N[C@@H](CCC(=O)O)C(=O)N[C@@H](CCC(N)=O)C(=O)N[C@@H](CCC)C(=O)N[C@@H](C)C(=O)N[C@@H](CCC(N)=O)C(=O)N[C@@H](CCC(N)=O)C(=O)N[C@@H](C)C(=O)N[C@@H](Cc1c[nH]cn1)C(=O)N[C@@H](CO)C(=O)N[C@@H](CC(N)=O)C(=O)N[C@@H](CCCNC(=N)N)C(=O)N[C@@H](CCCCN)C(=O)N[C@@H](CC(C)C)C(=O)N[C@@H](CCCC)C(=O)N[C@@H](CCC(=O)O)C(=O)N[C@@H](CCCC)C(=O)N[C@H](C(N)=O)[C@@H](C)CC [XXX, [D-Tyr^12, Ala^19, Lys^23, Nle^24,38,40 Nva^27,]-hCRF(12-41)] (H-[dY]HLLREVAEMAK[Nle]EQ[Nva]AQQAHSNRKL[Nle]E[Nle]I-NH2)",inhibits the secretion of ACTH and β-END-LI
5,"[4FD-Phe^12, CML^14,15,19,27,33,37, CMA^22,32,41, Nle^38 ]-AHC(12-41) [XIX]",inhibits the secretion of ACTH and β-END-LI
6,"CCCC[C@H](NC(=O)[C@H](CC(C)C)NC(=O)[C@H](CCCCN)NC(=O)[C@H](CCCNC(=N)N)NC(=O)[C@H](CC(N)=O)NC(=O)[C@H](CO)NC(=O)[C@H](Cc1c[nH]cn1)NC(=O)[C@H](C)NC(=O)[C@H](CCC(N)=O)NC(=O)[C@H](CCC(N)=O)NC(=O)[C@H](C)NC(=O)[C@H](CC(C)C)NC(=O)[C@H](CCC(N)=O)NC(=O)[C@H](CCC(=O)O)NC(=O)[C@H](C)NC(=O)[C@H](CCCNC(=N)N)NC(=O)[C@H](C)NC(=O)[C@H](CCSC)NC(=O)[C@H](CCC(=O)O)NC(=O)CNC(=O)[C@@H](NC(=O)[C@H](CCC(=O)O)NC(=O)[C@H](CCCNC(=N)N)NC(=O)[C@H](CC(C)C)NC(=O)[C@H](CC(C)C)NC(=O)[C@H](Cc1c[nH]cn1)NC(=O)[C@H](Cc1ccccc1)NC(=O)[C@@H](NC(=O)[C@H](CC(C)C)NC(=O)[C@H](CC(=O)O)NC(C)=O)[C@@H](C)O)C(C)C)C(=O)N[C@@H](CC(=O)O)C(=O)N[C@@H](CCC)C(=O)N[C@H](C(N)=O)[C@@H](C)CC [XIII, [Acetyl-Asp^9, Gly^19, Nle^38, Asp^39, Nva^40]-hCRF(9-41)] (Ac-DLTFHLLREVGEMARAEQLAQQAHSNRKL[Nle]D[Nva]I-NH2)",inhibits the secretion of ACTH and β-END-LI
7,"CCCC[C@H](NC(=O)[C@H](CCC(=O)O)NC(=O)[C@H](CC(C)C)NC(=O)[C@@H](NC(=O)[C@H](CCC(=O)O)NC(=O)[C@H](CCCNC(=N)N)NC(=O)[C@H](CC(C)C)NC(=O)[C@H](CC(C)C)NC(=O)[C@H](Cc1c[nH]cn1)NC(=O)[C@H](Cc1ccccc1)NC(=O)[C@@H](NC(=O)[C@@H](N)CC(C)C)[C@@H](C)O)C(C)C)C(=O)N[C@@H](C)C(=O)N[C@@H](CCCNC(=N)N)C(=O)NCC(=O)N[C@@H](CCC(=O)O)C(=O)N[C@@H](CCC(N)=O)C(=O)N[C@@H](CC(C)C)C(=O)N[C@@H](C)C(=O)N[C@@H](CCC(N)=O)C(=O)N[C@@H](CCC(N)=O)C(=O)N[C@@H](C)C(=O)N[C@@H](Cc1ccc(O)cc1)C(=O)N[C@@H](CO)C(=O)N[C@@H](CC(N)=O)C(=O)N[C@@H](CCCNC(=N)N)C(=O)N[C@@H](CCCN)C(=O)N[C@@H](CC(C)C)C(=O)N[C@@H](CCCC)C(=O)N[C@@H](CCC(=O)O)C(=O)N[C@H](C(=O)N[C@H](C(N)=O)[C@@H](C)CC)[C@@H](C)CC [XV, [Nle^21,38, Gly^24, Tyr^32, Orn^36]-hCRF (10-41)] (H-LTFHLLREVLE[Nle]ARGEQLAQQAYSNR[Orn]L[Nle]EII-NH2)",inhibits the secretion of ACTH and β-END-LI
8,"CCCC[C@H](NC(=O)[C@H](CCC(=O)O)NC(=O)[C@H](CC(C)C)NC(=O)[C@H](CCSC)NC(=O)[C@H](CCC(=O)O)NC(=O)[C@H](CCCNC(=N)N)NC(=O)[C@H](CC(C)C)NC(=O)[C@H](CC(C)C)NC(=O)[C@H](Cc1c[nH]cn1)NC(=O)[C@H](N)Cc1ccccc1)C(=O)N[C@@H](C)C(=O)N[C@@H](CCCCN)C(=O)N[C@@H](C)C(=O)N[C@@H](CCC(=O)O)C(=O)N[C@@H](CCC(N)=O)C(=O)N[C@@H](CCSC)C(=O)N[C@@H](C)C(=O)N[C@@H](CCC(=O)O)C(=O)N[C@@H](CCC(N)=O)C(=O)N[C@@H](C)C(=O)N[C@@H](C)C(=O)N[C@@H](CC(C)C)C(=O)N[C@@H](CC(N)=O)C(=O)N[C@@H](CCCNC(=N)N)C(=O)N[C@@H](CC(C)C)C(=O)N[C@@H](CC(C)C)C(=O)N[C@@H](CCCC)C(=O)N[C@@H](CCC(=O)O)C(=O)N[C@@H](CCC(=O)O)C(=O)N[C@@H](C)C(N)=O [XXI, [D-Phe^12, Met^27, Nle^21,38]-AHC (12-41)] (H-[dF]HLLREMLE[Nle]AKAEQMAEQAALNRLL[Nle]EEA-NH2)",inhibits the secretion of ACTH and β-END-LI

# Source: patent US5109111A, “CRF antagonists” (The Salk Institute for Biological Studies, priority 1990, dated 1992)
